Tests used:
[1] = test system: cAMP-specific phosphodiesterase (PDE IV); test: Inhibition of the PDE IV enzyme derived from a dog trachea; assay type: biochemical; conditions: test compound 10^−6 M; PDE IV from dog tracheal smooth muscle; substrate cAMP 1 μM
Procedure, shortened: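 Enzyme purified from dog tracheal smooth muscle; [3H]cAMP substrate at 1 μM final in 50 mM BES pH 7.2, 1 mM MgCl2, 0.1 mg/ml soybean trypsin inhibitor, 30° C for 10–30 min, 1.7% DMSO final. After HCl stop, product converted to adenosine by 5′-nucleotidase, separated on DEAE-Sephadex and scintillation-counted.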

Row | Structure (SMILES) | Enzyme Inhibitory Activity (%, 10^−6 M) [1] | melting point
1 | COc1ccc(CSc2ccncc2)c2c1OCC2C (racemic) [Compound 59, (±)-7-Methoxy-3-methyl-4-(4-pyridylthiomethyl)-2,3-dihydrobenzofuran] | 24% | 110 to 112 °C
2 | COc1ccc(C(=O)Nc2c(Cl)cncc2Cl)c2c1OCC2CC(=O)NCc1ccccc1 (racemic) [Compound 25, (±)-3-(Benzylaminocarbonyl)methyl-4-[(3,5-dichloro-4-pyridyl)aminocarbonyl]-7-methoxy-2,3-dihydrobenzofuran] | 84% | 284 to 286 °C
3 | COc1ccc(C(=O)Nc2c(Cl)cncc2Cl)c2c1OCC2CC(=O)NCc1ccc(Cl)cc1 (racemic) [Compound 30, (±)-3-[(4-Chlorobenzyl)aminocarbonyl]methyl-4-[(3,5-dichloro-4-pyridyl)aminocarbonyl]-7-methoxy-2,3-dihydro-benzofuran] | 85% | 283 to 286 °C
4 | COc1ccc(C(=O)Nc2ccccc2)c2c1OCC2CC(=O)O (racemic) [Compound 11, (±)-3-Carboxymethyl-7-methoxy-4-phenylaminocarbonyl-2,3-dihydrobenzofuran] | 6% | 248 to 251 °C
5 | COc1ccc(C(=O)Nc2c(Cl)cncc2Cl)c2cc(-c3ccncc3)oc12 [Compound 38, 4-[(3,5-Dichloro-4-pyridyl)aminocarbonyl]-7-methoxy-2-(4-pyridyl)benzofuran] | 89% | 289 to 290 °C
6 | CCOC(=O)CC1COc2c(OC)ccc(C(=O)Nc3c(Cl)cncc3Cl)c21 (racemic) [Compound 5, (±)-4-[(3,5-Dichloro-4-pyridyl)aminocarbonyl]-3-ethoxycarbonylmethyl-7-methoxy-2,3-dihydrobenzofuran] | 85% | 186 to 188 °C
7 | COc1ccc(C(=O)Cc2c(Cl)cncc2Cl)c2c1OCC2C (racemic) [Compound 103, (±)-4-[2-(3,5-Dichloro-4-pyridyl)-1-oxoethyl]-7-methoxy-3-methyl-2,3-dihydrobenzofuran] | 88% | 99 to 104 °C
8 | COc1ccc(C(=O)Nc2c(Cl)cncc2Cl)c2c1OC(C)(C)C=C2 [Compound 121, 5-(3,5-Dichloro-4-pyridylaminocarbonyl)-8-methoxy-2,2-dimethylbenzopyran] | 85% | 174 to 178 °C
9 | COc1ccc(C(C#N)Cc2c(Cl)cncc2Cl)c2c1OC(C)(C)C2 (racemic) [Compound 63, (±)-4-[1-Cyano-2-(3,5-dichloro-4-pyridyl)ethyl]-2,2-dimethyl-7-methoxy-2,3-dihydrobenzofuran] | 85% | 158 to 162 °C
10 | COc1ccc(C(=O)Nc2c(Cl)cncc2Cl)c2cc(-c3ccccn3)oc12 [Compound 40, 4-[(3,5-Dichloro-4-pyridyl)aminocarbonyl]-7-methoxy-2-(2-pyridyl)benzofuran] | 89% | 263 to 264 °C
11 | CCC1COc2c(OC)ccc(C(=O)Nc3c(Cl)cncc3Cl)c21 (racemic) [Compound 3, (±)-4-[(3,5-Dichloro-4-pyridyl)aminocarbonyl]-3-ethyl-7-methoxy-2,3-dihydrobenzofuran] | 75% | 202 to 204 °C
12 | COc1ccc(C(=O)Nc2c(Cl)cncc2Cl)c2c1OCC2CC(=O)O (racemic) [Compound 9, (±)-3-Carboxymethyl-4-(3,5-dichloro-4-pyridylaminocarbonyl)-7-methoxy-2,3-dihydrobenzofuran] | 22% | 259 to 263 °C
13 | COc1ccc(C(=O)Nc2c(Cl)cncc2Cl)c2c1OCC2CC(=O)NCc1ccccc1Cl (racemic) [Compound 31, (±)-3-[(2-Chlorobenzyl)aminocarbonyl]methyl-4-[(3,5-dichloro-4-pyridyl)aminocarbonyl]-7-methoxy-2,3-dihydro-benzofuran] | 89% | 288 to 289 °C
14 | CCC1(CC)Cc2c(C(=O)Cc3c(Cl)cncc3Cl)ccc(OC)c2O1 [Compound 97, 4-[2-(3,5-Dichloro-4-pyridyl)-1-oxoethyl]-2,2-diethyl-7-methoxy-2,3-dihydrobenzofuran] | 92% | 164 to 166 °C
15 | COc1ccc(C(=O)Cc2c(Cl)cncc2Cl)c2c1CC1(CCCC1)O2 [Compound 132, 7-[2-(3,5-Dichloro-4-pyridyl)-1-oxoethyl]-4-methoxy-spiro[2,3-dihydrobenzofuran-2,1′-cyclopentane]] | 66% | 70 to 72 °C
16 | COc1ccc(C(=Cc2ccncc2)c2ccccc2)c2c1OCC2C (racemic) [Compound 80, (±)-7-Methoxy-3-methyl-4-[1-phenyl-2-(4-pyridyl)ethenyl]-2,3-dihydrobenzofuran] | 17% | 103 to 105.5 °C
17 | COc1ccc(C(=O)Nc2c(Cl)cncc2Cl)c2c(-c3ccccc3)coc12 [Compound 42, 4-[(3,5-Dichloro-4-pyridyl)aminocarbonyl]-7-methoxy-3-phenylbenzofuran] | 73% | 177 to 179 °C
18 | COc1ccc(C(=O)Nc2c(Cl)cncc2Cl)c2c1OCC2C (racemic) [Compound 2, (±)-4-[(3,5-Dichloro-4-pyridyl)aminocarbonyl]-7-methoxy-3-methyl-2,3-dihydrobenzofuran] | 77% | 198 to 200 °C
19 | COc1ccc(C(Sc2ccncc2)c2ccccc2)c2c1OCC2C (racemic) [Compound 60B, (±)-7-Methoxy-3-methyl-4-[1-phenyl-1-(4-pyridylthio)-methyl]-2,3-dihydrobenzofuran] | 4% | 84 to 85 °C
20 | COc1ccc(C(=O)Nc2c(Cl)cncc2Cl)c2c1OCC2CC(=O)OCc1ccccc1 (racemic) [Compound 13, (±)-3-Benzyloxycarbonylmethyl-4-[(3,5-Dichloro-4-pyridyl)aminocarbonyl]-7-methoxy-2,3-dihydrobenzofuran] | 94% | 198 to 205 °C
21 | COc1ccc(C(=O)Nc2c(Cl)cncc2Cl)c2c1OC(C)(C)CC2 [Compound 122, 5-(3,5-Dichloro-4-pyridylaminocarbonyl)-8-methoxy-2,2-dimethyl-3,4-dihydrobenzopyran] | 92% | 155 to 156 °C
22 | COc1ccc(C(=O)Cc2ccncc2)c2c1OCC2C (racemic) [Compound 104, (±)-7-Methoxy-3-methyl-4-[1-oxo-2-(4-pyridyl)ethyl]-2,3-dihydrobenzofuran] | 48% | 111 to 117 °C
23 | COc1ccc(CSc2ccncc2)c2c1OC(C)(C)C2 [Compound 48, 7-Methoxy-2,2-dimethyl-4-(4-pyridylthiomethyl)-2,3-dihydrobenzofuran] | 41% | 109 to 113 °C
